We go through 4 compounds from publication PMC5063506, “A Novel Class of Small Molecule Agonists with Preference for Human over Mouse TLR4 Activation” (PLoS ONE, 2016).

For data set [1], the target named is T1, human TLR4 (Homo sapiens, UniProt O00206+Q9Y6Y9).
T1 construct: expressed in transfected cells; host or cells: HEK293 with stably integrated pNiFty2-SEAP reporter
In words: Human TLR4 NFκB SEAP reporter gene assay in hTLR4-transfected HEK293 cells. The data set is classed as cell-based. To be noted: NFκB SEAP reporter, hTLR4-transfected HEK293 cells, 20 h; read-out: Human TLR4 pEC50 (converted). The method, then: HEK293 cells stably transfected with pNiFty2-SEAP reporter plasmid were transiently transfected with either human or mouse TLR4 (pUNO expression vector), in combination with either human or mouse CD14/MD2 (pDUO expression vector). Transient transfectants were seeded in Dulbecco’s Modified Eagle Medium, FCS 10% (v/v), 2 mM l glutamine and non-essential amino acids. Cells were seeded in tissue culture treated clear flat bottom polystyrene 96 well plates (Costar, 3598) at 1e4 cells/well. Concentration-response curves were generated by addition of test compounds and incubation for 20 h at 37°C in an atmosphere of 5% CO2. LPS (E. coli 0111:B4, Ultra-pure, Invivogen) or PHAD (Avanti Polar Lipids) was used as a positive control. The SEAP released was quantified using p nitrophenyl phosphate as a substrate, and the absorbance at 405 nm was measured at 30 second intervals over several minutes using a microplate reader. Some data are recorded as the pEC50, the negative log of the EC50 value. Other data generated from these reporter cell lines were converted to AUC (area under the curve) values by interpolation of fitted cubic spline curve between OD value and log concentration levels. The calculation is performed using MESS package in statistical software R (www.r-project.org/).

The nature of data set [2]: LogD, octanol/water distribution coefficient. As to conditions: pH 7.4; octanol/water distribution coefficient at pH7.4. The data set is classed as physicochemical. The text has this:
Fig 2 Optimization stages of Ugi products as TLR4 agonists. *Human TLR-4 NFκB SEAP reporter assays; protocol as described in Methods. Data are reported as pEC50, or negative log of the EC50 values. **Clint rh / hm represents intrinsic clearance in presence of rat hepatocytes (μL/min/10^6 cells) and human microsomes (μL/min/mg protein). […] Thus a drug molecule with LogD >4 might be considered to be very lipophilic and therefore more likely to suffer from rapid metabolic turnover, poor solubility and receptor promiscuity; whereas a LogD range of 1–3 is more likely to be associated with optimal physicochemical and drug-like properties. ^††Solubility was measured by dissolution of solid samples in buffer at pH 7.4.

The subject of data set [3] is GP PBMCs. Kind of data set: Cytokine gene expression in guinea pig PBMCs (QuantiGene Plex). The class given is cell-based. To be noted: 1 and 0.2 μg/ml, 24 h, ranking among Ugi compounds. The method, then:
Splenocytes were isolated from naïve BALB/c mice by dissociating spleens with a GentleMACS (Miltenyi) instrument, then filtration through […] screens. For other species, blood was obtained through venipuncture or cardiac puncture into heparinized tubes, then diluted 1:1 with PBS or HBSS and layered onto Ficoll-Histopaque (GE Healthcare) for blood from healthy human volunteers and cynomolgus macaques, Lympholyte-Mammal (Cedarlane Labs) for New Zealand white rabbits, Sprague-Dawley rats, Hartley guinea pigs, cotton rats, and ferrets, followed by standard density centrifugation techniques. PBMCs layers were recovered and cultured in RPMI-1640 + human AB serum (Life Technologies) + Pen Strep + L-Glutamine (human cells) or RPMI-1640 + 10% FBS (Hyclone) + Pen/Strep + L-Glutamine + 0.1% Beta-Mercapto-ethanol (Sigma) (mouse, cyno, rat, cotton rat, guinea pig, rabbit, ferret cells). Purchase of peripheral blood from cynomolgus macaques was from Valley Biosystems (West Sacramento, CA) and was performed in accordance with Standard Operating Procedures and with the approval of the Valley Biosystems Institutional Animal Care and Use Committee (IACUC). […]
PBMCs (human, cynomolgus macaque, guinea pig, ferret, rabbit, rat, and cotton rat) or splenocytes (mouse) were seeded onto 96-well flat bottom plates at 5 x 10^5 cells/well and stimulated with TLR4 agonists at 1 and 0.2 μg/ml for 24 h at 37°C. […] For human, cyno, mouse, and rat, cell-free SNs were analyzed via human, NHP, mouse, and rat MILLIPLEX kits. For GP, ferret, rabbit, and CR, cells were lysed by Millipore lysing buffer and snap frozen at -70 C until ready for analysis by Affymetrix QuantiGene 2.0 Plex kits. […] Signal was detected using a Bioplex 200 instrument (BioRad). […]
Fig 7 Activation of cytokine gene expression by Ugi compounds in GP PBMCs. […] SNs were analyzed via GP Affymetrix QuantiGene Plex assay. Data are expressed as the means of 3 GPs at the 1 μg/ml dose of TLR4 agonist and are representative of 2 studies. […]

T1 sequence (O00206 24-839): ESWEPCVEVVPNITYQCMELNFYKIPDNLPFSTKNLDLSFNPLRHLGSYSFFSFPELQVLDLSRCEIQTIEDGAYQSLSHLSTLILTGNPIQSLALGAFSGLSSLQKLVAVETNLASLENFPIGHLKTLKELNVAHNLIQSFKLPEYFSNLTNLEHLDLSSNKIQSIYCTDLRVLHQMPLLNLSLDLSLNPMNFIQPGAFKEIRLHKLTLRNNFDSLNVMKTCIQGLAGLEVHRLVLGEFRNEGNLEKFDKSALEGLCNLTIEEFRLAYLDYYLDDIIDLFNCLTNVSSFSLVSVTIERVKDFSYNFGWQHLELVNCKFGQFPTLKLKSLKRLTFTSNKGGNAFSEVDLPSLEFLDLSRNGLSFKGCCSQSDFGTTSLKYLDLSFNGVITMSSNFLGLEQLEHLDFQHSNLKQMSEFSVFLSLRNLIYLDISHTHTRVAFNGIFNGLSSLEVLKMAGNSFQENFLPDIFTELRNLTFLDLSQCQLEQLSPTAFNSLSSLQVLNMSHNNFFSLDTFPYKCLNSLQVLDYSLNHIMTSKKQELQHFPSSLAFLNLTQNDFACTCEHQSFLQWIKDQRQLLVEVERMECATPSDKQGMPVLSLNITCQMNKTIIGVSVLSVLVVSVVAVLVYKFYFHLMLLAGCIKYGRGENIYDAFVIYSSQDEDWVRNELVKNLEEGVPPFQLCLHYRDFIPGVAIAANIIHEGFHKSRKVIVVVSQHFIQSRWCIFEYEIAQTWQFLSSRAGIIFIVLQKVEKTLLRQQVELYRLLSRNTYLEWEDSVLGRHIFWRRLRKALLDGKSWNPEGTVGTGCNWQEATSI
T1 sequence (Q9Y6Y9 19-160): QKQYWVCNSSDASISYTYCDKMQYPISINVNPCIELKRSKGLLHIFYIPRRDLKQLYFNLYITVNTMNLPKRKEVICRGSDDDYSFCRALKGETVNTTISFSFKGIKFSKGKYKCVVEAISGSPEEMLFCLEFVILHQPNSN

On to `CC(C)(C)c1ccc(N(C(=O)c2cc(-c3ccccc3)n(-c3ccccc3)n2)C(C(=O)NC2CCCC2)c2ccc(CC(=O)O)cc2)cc1` (stereo not shown) [AZ902], for which the EC50 in data set [1] was 6.31 nM. Further, the logD in data set [2] was greater than 4.5. Moreover, the “activity in GP PBMCs (cytokine mRNA)” value in data set [3] is listed as “lowest activity”.
`Cc1ccc(N(C(=O)c2cc(-c3ccccc3)n(-c3ccccc3)n2)C(C(=O)NC2CCCC2)c2ccc(CC(=O)O)cc2)cc1Cl` (stereo not shown) [AZ161]: the EC50 in data set [1] is 20 nM. In data set [2], this compound gave a logD of 3.2.
Regarding `O=C(O)Cc1ccc(C(C(=O)NC2CCCC2)N(C(=O)c2cc(-c3ccccc3)n(-c3ccccc3)n2)c2ccc3c(c2)CCC3)cc1` (stereo not shown) [AZ617], the EC50 in data set [1] is 5.01 nM. The compound also registered a logD in data set [2] of 2.85. For the same compound, the “activity in GP PBMCs (cytokine mRNA)” value in data set [3] is reported as “highest activity”.
On to `Cc1cc(C)cc(N(C(=O)c2cc(-c3ccccc3)n(-c3ccccc3)n2)C(C(=O)NC2CCCC2)c2ccc(CC(=O)O)cc2)c1` (stereo not shown) [AZ618, 2-(4-(2-(cyclopentylamino)-1-(N-(3,5-dimethylphenyl)-1,5-diphenyl-1H-pyrazole-3-carboxamido)-2-oxoethyl)phenyl)acetic acid], for which, in data set [1], the EC50 was 20 nM. For the same compound, in data set [3], the “activity in GP PBMCs (cytokine mRNA)” value is reported as “highest activity”.
